Measurements from article PMC12123458, “Unraveling Small Molecule-Mediated Sirtuin 3 Activation at a Distinct Binding Site for Cardioprotective Therapies” (ACS Central Science, 2025).

What was measured:
SIRT5 [1] = biological target: T1, SIRT5 (Homo sapiens, UniProt Q9NXA8); assay: Coupled enzymatic assay, succinylated CPS1-K537 substrate; assay type: biochemical; settings: 100 μM
T1 sequence (Q9NXA8 37-310): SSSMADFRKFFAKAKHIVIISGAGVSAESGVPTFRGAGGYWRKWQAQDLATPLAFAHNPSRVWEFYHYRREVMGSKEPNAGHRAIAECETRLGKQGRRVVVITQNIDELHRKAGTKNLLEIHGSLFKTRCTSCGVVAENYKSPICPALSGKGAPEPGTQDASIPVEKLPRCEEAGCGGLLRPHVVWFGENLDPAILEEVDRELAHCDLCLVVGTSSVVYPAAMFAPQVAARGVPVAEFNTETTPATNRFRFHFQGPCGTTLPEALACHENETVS
Source text: (§1) Additionally, we used surface plasmon resonance (SPR) to measure the binding of SKLB-11A to immobilized SIRT3. […] We next evaluated the selectivity of SKLB-11A for different SIRT family members. […] We next examined the functional specificity of SKLB-11A using coupled enzymatic assays with isoform-specific, physiologically relevant substrates: acetylated p53-K381 for SIRT1, acetylated α-tubulin-K25 for SIRT2, acetylated MnSOD-K122 for SIRT3, and succinylated CPS1-K537 for SIRT5 (Supplementary Table S3). […] Using Schrödinger molecular docking simulations, we assessed the binding interactions of SKLB-11A with SIRT isoforms.

SIRT1 [2] = biological target: T2, SIRT1 (Homo sapiens, UniProt Q96EB6); assay: Coupled enzymatic assay, acetylated p53-K381 substrate; assay type: biochemical; settings: 100 μM
T2 sequence (Q96EB6 1-747): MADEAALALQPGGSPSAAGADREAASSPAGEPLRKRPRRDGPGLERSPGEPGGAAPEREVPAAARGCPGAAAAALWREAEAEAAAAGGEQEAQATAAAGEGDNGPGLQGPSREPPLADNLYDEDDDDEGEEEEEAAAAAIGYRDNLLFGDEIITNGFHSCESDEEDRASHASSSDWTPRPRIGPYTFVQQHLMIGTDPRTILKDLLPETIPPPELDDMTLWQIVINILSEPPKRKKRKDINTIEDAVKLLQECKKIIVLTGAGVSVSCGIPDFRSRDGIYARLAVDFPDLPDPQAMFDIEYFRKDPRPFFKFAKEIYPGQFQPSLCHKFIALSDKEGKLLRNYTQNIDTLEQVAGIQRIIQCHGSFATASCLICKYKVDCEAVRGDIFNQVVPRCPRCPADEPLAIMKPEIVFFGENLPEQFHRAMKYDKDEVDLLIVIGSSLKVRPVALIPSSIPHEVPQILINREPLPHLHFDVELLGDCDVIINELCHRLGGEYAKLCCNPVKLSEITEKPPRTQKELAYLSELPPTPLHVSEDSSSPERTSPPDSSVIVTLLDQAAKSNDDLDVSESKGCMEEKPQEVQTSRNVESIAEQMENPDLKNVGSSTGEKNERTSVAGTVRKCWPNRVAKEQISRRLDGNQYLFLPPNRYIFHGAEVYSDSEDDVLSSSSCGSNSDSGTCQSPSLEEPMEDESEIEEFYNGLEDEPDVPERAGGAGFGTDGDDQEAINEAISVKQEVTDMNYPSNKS
Source text: as §1

SIRT5 [3] = biological target: T1, SIRT5; assay: SPR binding to SIRT5
Description: (§2) The affinity of SKLB-11A for SIRT1, SIRT2, SIRT3, SIRT5, and SIRT6 was determined using a Reichert 4SPR system (Reichert Technologies, Depew, NY, USA). Proteins at 200 μg/mL were immobilized on a dextran-coated sensor chip (13206066) until reaching ≥12,000 response units (RUs). A dual-flow channel setup was used, reserving one channel for blank controls. SKLB-11A was introduced at varying concentrations for binding and subsequent dissociation kinetic analysis. Data acquisition was at 25 °C utilizing a PBST running buffer (pH 7.4). The equilibrium dissociation constant (K d) was computed from steady-state affinity measurements using TraceDrawer software.

SIRT3 = biological target: T3, SIRT3 (Rattus norvegicus, UniProt A0A8I5XWT5); assay: CETSA of SIRT3 in H9c2 cells; assay type: cell-based; settings: 10 μM, 6 h
T3 construct: endogenous in cells; host or cells: H9c2
T3 sequence (A0A8I5XWT5 1-347): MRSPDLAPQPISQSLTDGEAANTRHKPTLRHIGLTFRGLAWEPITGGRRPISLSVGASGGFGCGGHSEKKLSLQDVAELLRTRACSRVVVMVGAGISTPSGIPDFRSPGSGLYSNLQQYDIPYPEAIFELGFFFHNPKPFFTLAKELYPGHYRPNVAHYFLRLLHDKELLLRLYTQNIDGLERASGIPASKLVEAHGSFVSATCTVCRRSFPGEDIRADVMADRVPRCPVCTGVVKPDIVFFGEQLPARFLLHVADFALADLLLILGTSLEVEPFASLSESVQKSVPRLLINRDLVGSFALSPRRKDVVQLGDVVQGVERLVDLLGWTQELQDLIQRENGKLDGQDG
Description: The Cellular Thermal Shift Assay (CETSA) leverages the principle of thermal stabilization of proteins upon ligand binding. H9c2 cells were seeded on 100 mm culture dishes and allowed to adhere for 12 h. Following attachment, cells were treated with SKLB-11A (10 μM) for 6 h, after which they were enzymatically detached using trypsin and harvested. The cell suspension was partitioned into seven equal aliquots, which were then exposed to a range of thermal conditions (37, 41, 45, 49, 53, 57, and 61 °C) for 3 min each. Post-thermal treatment, rapid freezing in liquid nitrogen was performed thrice to ensure cell lysis. The lysates were then subjected to centrifugation at 12,000 rpm for 20 min, and the levels of SIRT3 were analyzed via Western blotting.

SIRT2 = biological target: T4, SIRT2 (Homo sapiens, UniProt Q8IXJ6); assay: SPR binding to SIRT2
T4 sequence (Q8IXJ6 1-389): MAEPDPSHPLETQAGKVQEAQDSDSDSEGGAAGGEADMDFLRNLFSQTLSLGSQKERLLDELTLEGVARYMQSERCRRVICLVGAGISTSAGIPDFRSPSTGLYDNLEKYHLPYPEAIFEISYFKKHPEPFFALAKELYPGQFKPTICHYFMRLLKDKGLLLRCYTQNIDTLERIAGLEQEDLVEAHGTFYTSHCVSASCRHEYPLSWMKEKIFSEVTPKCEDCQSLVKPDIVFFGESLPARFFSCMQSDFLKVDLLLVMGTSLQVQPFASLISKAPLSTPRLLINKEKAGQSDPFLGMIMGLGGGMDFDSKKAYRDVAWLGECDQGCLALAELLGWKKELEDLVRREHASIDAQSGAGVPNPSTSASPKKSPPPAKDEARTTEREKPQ
Description: as §2

SIRT1 [4] = biological target: T2, SIRT1; assay: SPR binding to SIRT1
Description: as §2

**Q.** COC(=O)c1c(N)n(Cc2ccc(F)cc2)c2nc3ccccc3nc12 [SKLB-11A, Methyl 2-amino-1-(4-fluorobenzyl)-1H-pyrrolo[2,3-b]quinoxaline-3-carboxylate] was tested. Which “effect on basal SIRT5 desuccinylation activity” value (SIRT5 [1]) did it give?
**A.** The value was “no statistically significant effects”.

**Q.** What about the “effect on basal SIRT1 deacetylation activity” value (SIRT1 [2]) of the same molecule?
**A.** Its value is “no statistically significant effects”.

**Q.** And the “binding to SIRT5” value (SIRT5 [3])?
**A.** Its value is “no binding”.

**Q.** What about the “thermal stability of SIRT3 (CETSA)” value (SIRT3) of the same molecule?
**A.** The value was “effectively binds to SIRT3”.

**Q.** What about the Kd (SIRT2; SPR) of the same molecule?
**A.** Its Kd is greater than 200 µM.

**Q.** What about the “affinity for SIRT2 lower than its affinity for SIRT3” value (SIRT2; SPR Kd ratio) of the same molecule?
**A.** Its value is “approximately 40 times”.

**Q.** What about the Kd (SIRT1 [4]; SPR) of the same molecule?
**A.** Its Kd is greater than 200 µM.

**Q.** What about the “affinity for SIRT1 lower than its affinity for SIRT3” value (SIRT1 [4]; SPR Kd ratio) of the same molecule?
**A.** Its value is “approximately 40 times”.
